Assay results published in PubChem BioAssay AID1599 (NINDS Approved Drug Screening Program, 2009).

These molecules were tested on C. elegans polyQ-huntingtin mechanosensory neurons, touch response (assay: rescue of polyQ-huntingtin neuronal dysfunction in worms, whole organism, C. elegans mechanosensory neurons, N-terminal huntingtin (AID 1599)).

Structure (SMILES) | EC50
CCn1cc(C(=O)O)c(=O)c2cc3c(cc21)OCO3 | 2.3 µM
Cc1cc2cc3c(C)cc(=O)oc3c(C)c2o1 | 3.8 µM
COc1ccc(Cl)cc1C(=O)NCCc1ccc(S(=O)(=O)NC(=O)NC2CCCCC2)cc1 | 2.3 µM
CN1CCC(=C2c3ccccc3Sc3ccccc32)CC1 | 24 µM
CC(C)(C)c1ccc(C(O)CCCN2CCC(C(O)(c3ccccc3)c3ccccc3)CC2)cc1 (stereo unspecified) | 0.9 µM
CNc1ccc2oc(C[C@@H]3OC4(CC[C@@H]3C)O[C@H](C(C)C(=O)c3ccc[nH]3)[C@H](C)C[C@H]4C)nc2c1C(=O)O (stereo partly specified) | 5.5 µM
CC(=O)OCC1=C(C(=O)O)N2C(=O)[C@@H](NC(=O)CCCC(N)C(=O)O)C2SC1 (stereo partly specified) | 2 µM
CC(C)NNC(=O)c1ccncc1 | 16 µM
CC1=C2C(=CO[C@H](C)[C@H]2C)C(=O)C(C(=O)O)=C1O | 40 µM
O=C1c2ccc(O)c(O)c2C(=O)c2c(O)ccc(O)c21 | 2.8 µM
CCCCNc1ccc(C(=O)OCCN(C)C)cc1 | 5.8 µM
CNCCC=C1c2ccccc2CCc2ccccc21 | 1.8 µM
CC1=NN(c2ccccc2)C(=O)C1 | 0.016 µM
C[C@@]1(C(=O)O)CC[C@]2(C)CC[C@]3(C)C4=CC=C5C=C(O)C(=O)C=C5[C@]4(C)CC[C@@]3(C)[C@@H]2C1 | 0.4 µM
Clc1ccc(COC(Cn2ccnc2)c2ccc(Cl)cc2Cl)cc1 (stereo unspecified) | 3 µM
Oc1c(Cl)cc(Cl)c2cccnc12 | 3 µM
C=Cc1c(C)c2cc3[nH]c(cc4nc(cc5nc(cc1[nH]2)C(C)=C5CCC(=O)O)C(CCC(=O)O)=C4C)c(C)c3C=C | 0.005 µM
OCCN1CCN(CCCN2c3ccccc3Sc3ccc(Cl)cc32)CC1 | 1 µM
Cc1cc(O)cc(C)c1Cl | 3.3 µM
O=c1c2ccccc2[se]n1-c1ccccc1 | 0.2 µM
C[C@@H]1O[C@@H](O[C@H]2[C@H](Oc3cc(O)c4c(c3)O[C@H](c3ccc(O)cc3)CC4=O)O[C@H](CO)[C@@H](O)[C@@H]2O)[C@H](O)[C@H](O)[C@H]1O | 0.8 µM
Clc1ccc(C(OCCN2CCCCC2)c2ccccc2)cc1 (stereo unspecified) | 28 µM
O=c1oc2ccccc2c(O)c1Cc1c(O)c2ccccc2oc1=O | 4.2 µM
COc1ccc2cc(CCC(C)=O)ccc2c1 | 10 µM
CN(C)CCCN1c2ccccc2CCc2ccc(Cl)cc21 | 28 µM
CN1CCN(C2=Nc3cc(Cl)ccc3Nc3ccccc32)CC1 | 4.4 µM
